One compound from patent US20110059869A1, “Method for Increasing Enzymatic Reactivity” (RIKEN, priority 2008, published 2011) can be followed below.

Data set [1] concerns XhoI, PstI, HindIII, and NotI. Kind of data set: Various restriction enzyme reactions on biotin-labeled cDNA immobilized on streptavidin beads. Format: biochemical. As to conditions: 0.6 M trehalose vs trehalose (−); 3 hours at 37° C.; all enzymes. The procedure:
Streptavidin beads on which were adsorbed double-stranded cDNA were washed with various restriction enzyme buffers. The restriction enzymes employed were XhoI, PstI, HindIII, and NotI. Two reaction solutions (various 1× buffers, 1× BSA based on enzyme, restriction enzyme 40 units) were prepared: a trehalose (+) system to which D(+)-trehalose was added to a final concentration of 0.6 M, and a trehalose (−) system, to which no trehalose was added. The reaction solutions were admixed to beads that had been washed and the mixtures were reacted for 3 hours at 37° C. A magnetic stand was used to recover (aggregate) the beads, cleavage was conducted with restriction enzyme, and the supernatant containing the cDNA that had been released was measured with a liquid scintillation counter. The cDNA yield and restriction enzyme efficiency were calculated from the RI count values (Scheme 2).

Data set [2] in a line: State of streptavidin bead reaction solution during enzymatic reaction. Format: physicochemical. As to conditions: 0.6 M additive; extended / three hours restriction enzyme reaction. From the text:
Thus, with no nonuniformity in enzymatic activity, the various enzymatic reactions were promoted and the quantity of target DNA recovered increased.
This was attributed to characteristics such as the viscosity and diffusing effect of trehalose or sorbitol.

Data set [3] concerns XhoI, PstI, HindIII, and EcoRI. Put plainly: DNA cleavage reactions by various restriction enzymes on bead and plate surfaces. In kind it is biochemical. Conditions: 0.6 M trehalose vs none, all enzymes. The protocol:
Differences in activity based on the type of enzyme in reactions under conditions where trehalose was present and absent and for various reactions surface shapes were examined. XhoI, PstI, HindIII, and EcoRI were employed as restriction enzymes to conduct reactions cleaving the same site on a DNA fragment with different enzymes (Scheme 8).
Cleavage reactions by various restriction enzymes were conducted on biotin-labeled DNA fragments I, II, and III (Seq. ID Nos. 4 to 6, Scheme 4) on bead surfaces. […] Paramagnetic streptavidin beads were washed with accessory 1× binding buffer, recovered with a magnetic stand to remove the supernatant, and suspended in the same buffer. […] The precipitate of DNA fragments obtained was dissolved in 1× TE (pH 7.5) and analyzed with Bioanalyzer DNA 1000 assay (Agilent Technologies).
Biotin-labeled DNA fragments II and III (Seq. ID Nos. 5 and 6, Scheme 4) were subjected to cleavage reactions by different restriction enzymes on horizontal streptavidin-coated plate surfaces. […] The precipitate of DNA fragments obtained was dissolved in 1× TE (pH 7.5) and analyzed with Bioanalyzer DNA 1000 assay (Agilent Technologies).

The test system of data set [4] is sequencing enzyme reaction solution of a Genome Sequencer FLX system. Put plainly: Sequencing reaction of the 454 sequencing system (Genome Sequencer FLX). Format: biochemical. As to conditions: trehalose 0.15 M and 0.3 M in sequencing reaction vs none. The protocol:
In the 454 sequencing system described in 11 above, trehalose was added to the reaction solution to a final concentration of 0.3 M, the sequencing reaction was conducted, and the effect on the sequencing level was observed.
D(+)-trehalose was added to the sequencing enzyme reaction solution of a Genome Sequencer FLX system and the effects were measured. Two experiments were conducted with final D(+)-trehalose concentrations of 0.15 M and 0.3 M. The ratio of the read length to the decodable sample was employed for comparison.
The D(+)-trehalose employed was D(+)-trehalose dihydrate (201-02253 reagent grade) (Wako). A GS LR 25 Sequencing Kit (502906) was employed for sequencing with the Genome Sequencer FLX system. The samples employed here were a PolyA minus full length cDNA library prepared in-house and human genome prepared according to the manufacturer's protocol.
The D(+)-trehalose dihydrate (201-02253 reagent grade) (Wako) was added in the following proportion to the Buffer CB among the reagents contained in the GS LR 25 Sequencing Kit (502906).
The mixture was stirred with a magnetic stirrer. Once dissolution had been visually confirmed, the mixed solution was passed through a filter (filter pore system 0.22 micrometer). Following filtration, precisely the required 2× 1000 mL quantities were collected from the mixed solution. […]

A further data set has as its system restriction enzyme PstI. Kind of data set: PstI cleavage reaction in solution (DNA fragment III). Format: biochemical. Conditions: normal reaction solution, with vs without 0.6 M trehalose; three hours. The protocol: Biotin-labeled DNA fragment III (Seq. ID No. 6, Scheme 4) was cleaved at the restriction enzyme PstI site in solution and the 104 by DNA fragment that was released was examined. Two forms of reaction solution (DNA fragment III 500 ng, 1× PSTI buffer, 1× BSA, restriction enzyme 40 units) were prepared: a total of 50 uL trehalose (+) reaction solution to which D(+)-trehalose was added to a final concentration of 0.6 M, and a total of 50 uL trehalose (−) reaction solution, to which no trehalose was added. The reaction solutions were reacted for 3 hours at 37° C., a proteinase K reaction was conducted, phenol chloroform treatment was carried out, and precipitation from ethanol was conducted. The precipitate of the DNA fragment obtained was dissolved in 1× TE (pH 7.5) and analyzed with Bioanalyzer DNA 1000 assay (Agilent Technologies).

Consider `OC[C@H]1O[C@H](O[C@H]2O[C@H](CO)[C@@H](O)[C@H](O)[C@H]2O)[C@H](O)[C@@H](O)[C@@H]1O` [trehalose, D(+)-trehalose], for which, in data set [1], the “quantity of released cDNA recovered” value is on record as “higher quantity was recovered”. Besides, in data set [2], the “uniformity of beads in the reaction solution” value is “maintaining better uniformity in the reaction solution”. For the same compound, the “enzymatic activity in cleavage reactions” value in data set [3] was “increased activity”. Moreover, the number of sequences entry in data set [4] is reported as “increased the number of sequences”. For the same compound, the “yield of released DNA fragment” value in the data set on restriction enzyme PstI is listed as “the same yield”.
